Experimental data reported in ChEMBL document CHEMBL3044689, “Synthesis and Rice-Blast Control Activity of Sulfonylamidines” (1992).

How the values were obtained:
Assay type in all cases: functional
Pyricularia oryzae [1] = experiment: Antifungal activity against Magnaporthe oryzae infected on compound treated rice seedlings at 7.8 ppm incubated for 24 hr in moist chamber followed by incubation for 5 days in greenhouse conditions
Pyricularia oryzae [2] = experiment: Antifungal activity against Magnaporthe oryzae infected on compound treated rice seedlings at 31.3 ppm incubated for 24 hr in moist chamber followed by incubation for 5 days in greenhouse conditions
Pyricularia oryzae [3] = experiment: Antifungal activity against Magnaporthe oryzae infected on compound treated rice seedlings at 125 ppm incubated for 24 hr in moist chamber followed by incubation for 5 days in greenhouse conditions
Pyricularia oryzae [4] = experiment: Antifungal activity against Magnaporthe oryzae infected on compound treated rice seedlings at 500 ppm incubated for 24 hr in moist chamber followed by incubation for 5 days in greenhouse conditions

| Structure (SMILES) | Activity (Pyricularia oryzae [4]) [%] | other results |
| --- | --- | --- |
| CCSC1=NS(=O)(=O)c2ccccc2N1C | 90 | Activity (Pyricularia oryzae [1]): 0%; Activity (Pyricularia oryzae [2]): 30%; Activity (Pyricularia oryzae [3]): 70% |
| Cc1ccc(S(=O)(=O)/N=C(/c2ccccc2)N(C)C)cc1 | 30 |  |
| Cc1ccc(/C(=N/S(=O)(=O)c2ccc(C)cc2)N(C)C)cc1 | 70 |  |
| COc1ccc(/C(=N/S(=O)(=O)c2ccc(C)cc2)N(C)C)cc1 | 70 |  |
| Cc1ccc(S(=O)(=O)/N=C(/c2ccc(N(C)C)cc2)N(C)C)cc1 | 0 |  |
| Cc1ccc(S(=O)(=O)/N=C(/c2ccc(Cl)cc2)N(C)C)cc1 | 0 |  |
| Cc1ccc(S(=O)(=O)/N=C(/c2ccc([N+](=O)[O-])cc2)N(C)C)cc1 | 0 |  |
| Cc1ccc(S(=O)(=O)/N=C(/c2ccc(Cl)c(Cl)c2)N(C)C)cc1 | 50 |  |
| COC(=O)c1ccccc1/C(=C/S(=O)(=O)c1ccc(C)cc1)N(C)C | 0 |  |
| C/C(=N/S(=O)(=O)c1ccc(C)cc1)N(C)C | 70 |  |
| CCC/C(=N/S(=O)(=O)c1ccc(C)cc1)N(C)C | 70 |  |
| C/C=C/C(=N/S(=O)(=O)c1ccc(C)cc1)N(C)C | 30 |  |
| Cc1ccc(S(=O)(=O)/N=C(/CC(C)Br)N(C)C)cc1 (stereo not drawn) | 30 |  |
| CCCCCC/C(=N/S(=O)(=O)c1ccc(C)cc1)N(C)C | 70 |  |
| Cc1ccc(S(=O)(=O)/N=C(/C2CCCCC2)N(C)C)cc1 | 50 |  |
| CO/C(=N/S(=O)(=O)c1ccc(C)cc1)N(C)C | 0 |  |
| CS/C(=N/S(=O)(=O)c1ccc(C)cc1)N(C)C | 30 |  |
| Cc1ccc(S(=O)(=O)N=C(N(C)C)N(C)C)cc1 | 30 |  |
| CCOC(=O)/C(=N/S(=O)(=O)c1ccc(C)cc1)N(C)C | 50 |  |
| CCN(CC)/C(=N\S(=O)(=O)c1ccc(C)cc1)C(C)C | 0 |  |
| CCN(CC)/C(CC(C)C)=N\S(=O)(=O)c1ccc(C)cc1 | 0 |  |
| CCN(CC)/C(=N\S(=O)(=O)c1ccc(C)cc1)C(C)(C)C | 0 |  |

| Structure (SMILES) | Activity (Pyricularia oryzae [4]) [%] | other results |
| --- | --- | --- |
| CCCC/C(=N/S(=O)(=O)c1ccc(C)cc1)N(CC)CC | 70 |  |
| CCCCC/C(=N/S(=O)(=O)c1ccc(C)cc1)N(CC)CC | 90 | Activity (Pyricularia oryzae [1]): 30%; Activity (Pyricularia oryzae [2]): 70%; Activity (Pyricularia oryzae [3]): 90% |
| CCCCCC/C(=N/S(=O)(=O)c1ccc(C)cc1)N(CC)CC | 97 | Activity (Pyricularia oryzae [1]): 50%; Activity (Pyricularia oryzae [2]): 90%; Activity (Pyricularia oryzae [3]): 90% |
| CCN(CC)/C(=N\S(=O)(=O)c1ccc(C)cc1)C1CCCCC1 | 30 |  |
| CCCCCCC/C(=N/S(=O)(=O)c1ccc(C)cc1)N(CC)CC | 90 | Activity (Pyricularia oryzae [1]): 30%; Activity (Pyricularia oryzae [2]): 70%; Activity (Pyricularia oryzae [3]): 90% |
| CCCCCCCC/C(=N/S(=O)(=O)c1ccc(C)cc1)N(CC)CC | 70 |  |
| CCCCCCCCC/C(=N/S(=O)(=O)c1ccc(C)cc1)N(CC)CC | 50 |  |
| CCCCCCCCCC/C(=N/S(=O)(=O)c1ccc(C)cc1)N(CC)CC | 50 |  |
| CCCCCCCCCCC/C(=N/S(=O)(=O)c1ccc(C)cc1)N(CC)CC | 50 |  |
| CCCCCCCCCCCCC/C(=N/S(=O)(=O)c1ccc(C)cc1)N(CC)CC | 30 |  |
| CCCCCCCCCCCCCCC/C(=N/S(=O)(=O)c1ccc(C)cc1)N(CC)CC | 0 |  |
| CCCCCC/C(=N/S(=O)(=O)c1ccc(C)cc1)N(CCC)CCC | 50 |  |
| CCCCCC/C(=N/S(=O)(=O)c1ccc(C)cc1)N(CCCC)CCCC | 0 |  |
| CCCCCC/C(=N/S(=O)(=O)c1ccc(C)cc1)N1CCCCC1 | 50 |  |
| CCCCCC/C(=N/S(=O)(=O)c1ccc(C)cc1)N1CCCC1 | 30 |  |
| CCCCCC/C(=N/S(=O)(=O)c1ccc(C)cc1)N1CCN(C)CC1 | 30 |  |
| CCCCCC/C(=N/S(=O)(=O)c1ccc(C)cc1)N1CCOCC1 | 30 |  |
| CCCCCC/C(=N/S(=O)(=O)c1ccc(Cl)cc1)N(CC)CC | 30 |  |
| CCCCCC/C(=N/S(=O)(=O)c1ccccc1Cl)N(CC)CC | 0 |  |
| CCCCCC/C(=N/S(=O)(=O)c1ccccc1)N(CC)CC | 30 |  |
| CC(C)OP(=O)(OC(C)C)SCc1ccccc1 [IPROBENFOS] | 70 | Activity (Pyricularia oryzae [1]): 0%; Activity (Pyricularia oryzae [2]): 30%; Activity (Pyricularia oryzae [3]): 50% |
